Assay results published in patent publication US20240343733A1, “COMPOUNDS FOR TARGETING DEGRADATION OF IRAK4 PROTEINS” (BIOGEN MA INC., priority 2021, published 2024).

Experiments:
[1] = target: T1, IKZF1 (Homo sapiens, UniProt Q13422); assay: IKZF1 Degradation Assay, HiBiT Method; format: cell-based; settings: NCIH929 cells expressing HiBiT-tagged IKZF1, 6 hours, top concentration 10 μM
T1 construct: endogenously expressing IKZF1 with HiBiT fusion tag via CRISPR
Summary of the method: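 NCIH929 cells expressing HiBiT-tagged IKZF1, 15000 cells/well in RPMI with 10% FBS and 0.05 mM 2-mercaptoethanol, exposed to compound 6 h at 37 °C. Remaining IKZF1 quantified by lytic HiBiT luminescence, normalised to untreated-cell and medium-only controls.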

[2] = target: T2, IRAK4 (Canis lupus familiaris, UniProt A0A8I3S726); assay: Pharmacodynamics (PD) in Male Beagle Dogs, IRAK4 quantitation in PBMCs by nanoLC-MS/MS; format: in vivo; settings: male beagle dog PBMCs
T2 sequence (A0A8I3S726 1-460): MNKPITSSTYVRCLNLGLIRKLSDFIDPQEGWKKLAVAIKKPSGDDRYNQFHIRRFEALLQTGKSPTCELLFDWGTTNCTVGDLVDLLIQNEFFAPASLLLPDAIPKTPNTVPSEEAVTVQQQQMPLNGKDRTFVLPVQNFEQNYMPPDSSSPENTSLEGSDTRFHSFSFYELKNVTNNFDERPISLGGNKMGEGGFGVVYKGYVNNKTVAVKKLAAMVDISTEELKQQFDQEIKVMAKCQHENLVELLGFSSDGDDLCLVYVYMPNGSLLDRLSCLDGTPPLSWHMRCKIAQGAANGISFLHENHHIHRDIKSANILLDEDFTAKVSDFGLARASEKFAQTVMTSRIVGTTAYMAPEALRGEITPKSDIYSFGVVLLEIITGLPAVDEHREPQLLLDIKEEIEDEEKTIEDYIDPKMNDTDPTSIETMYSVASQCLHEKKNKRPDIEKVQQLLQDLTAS
Method: Assay 4. Pharmacodynamics (PD) in Male Beagle Dogs
Pharmacodynamics (PD) biomarker analyses of male beagle dog PMBCs from the whole blood timepoint samples collected in Assay 3 were performed.
For isolation of PBMCs, the whole blood timepoint samples described in Assay 3 above were processed immediately to ensure high viability of PBMCs. All the samples were processed at 18° C. to 20° C. The freshly collected whole blood (2 mL) was mixed with an equal volume of phosphate buffered saline. This mixture was inverted several times to ensure thorough mixing. The Histopaque® (Catalog no. 10771, Sigma-Aldrich, St. Louis, MO) bottle was inverted several times to ensure uniformity of the medium. A sterile syringe was used to draw 2 mL of Histopaque® medium and added to a sterile centrifuge tube. The whole blood-PBS sample (4 ml) was carefully layered on top of the Histopaque® medium, without mixing. The tube was centrifuge at 600 g for 30 to 40 min at 18° C. to 20° C. with the brakes turned off. The upper layer containing plasma and platelets was withdrawn slowly using a sterile pipette, leaving the PBMC cell layer undisturbed at the interface. The PBMC layer was transferred to a sterile centrifuge tube using a sterile pipette. The PBMCs were washed with 3 volumes (˜6 mL) of Hank's balanced salt solution (HBSS) (Gibco, Grand Island, NY) in the centrifuge tube. The cells were suspended by gently drawing them in and out of a pipette. The tubes were centrifuged at 250 g for 10 to 15 minutes at 18° C. to 20° C. and the supernatant discarded. The PBMCs were then resuspended in 6 to 8 ml of HBSS. For cell counting, the cell suspension was diluted 1:1 with Trypan Blue dye and mixed well. The cell numbers (live and dead) were counted, and cell viability calculated. The cell numbers and cell viability of each PBMC sample were recorded. The tube was centrifuged again at 500 g for 10 min at 18° C. to 20° C. The supernatant was removed, and the cell pellet was frozen at −80° C.
The frozen dog PBMC cell pellets were homogenized in two pellet volumes of lysis buffer (100 mM triethylammonium bicarbonate (TEAB), 4% SDS, 1× Roche protease inhibitor cocktail) by sonicating at 150 watt for 10 seconds in a 4° C. water bath using an E220 focused-ultrasonicator (Covaris, Woburn, MA, USA). Lysates were then clarified by centrifugation at 18,000 g for 20 minutes at 4° C. and protein concentrations were determined by bicinchoninic acid (BCA) assay (ThermoFisher Scientific, Waltham, MA, USA).
For protein digestion, an equal amount of protein was taken from each sample. Proteins were reduced with 10 mM DTT for 10 minutes at 70° C. and alkylated with 25 mM iodoacetamide for 30 minutes in the dark. Tryptic digestion was performed with S-Trap™ method (Protifi, Farmingdale, NY, USA) overnight at 37° C. In brief, samples were mixed with 90% MeOH in 100 mM TEAB containing 10% (w/w) trypsin and loaded onto an in-house packed S-Trap microcolumns. Samples were washed with 90% MeOH in 100 mM TEAB, and digested in 100 mM TEAB for 16 hours at 37° C. The resulting peptides were spiked with five heavy-labeled IRAK4 peptides (Vivitide, LLC, Gardner, MA, USA) at 2 fmol each (column loading), desalted using C18 StageTip, SpeedVac dried, and kept at −80 C until nanoLC-MS/MS analysis.
Peptide analysis was performed on a nanoLC-MS/MS platform composed of a Q Exactive HF mass spectrometer coupled to an EASY-nLC 1200 (ThermoFisher Scientific). Peptides were separated on an EASY-Spray™ C18 column (50 cm×75 am, 2 am) (ThermoFisher Scientific) at 50° C. Mobile phases were 0.1% formic acid in water (A) and 80% acetonitrile, 0.1% formic acid (B). Peptides were eluted with a 100-min method over an effective 80 min gradient from […] to 45% B at a flow rate of 275 nL/min. Peptides were ionized with a spray voltage of 1,800 V. Mass spectrometric data were acquired at parallel reaction monitoring (PRM) mode including five pairs of light and heavy IRAK4 peptides (Table 7 below). […]

T1 sequence (Q96SW2 whole entry partner, the tested form may be a part): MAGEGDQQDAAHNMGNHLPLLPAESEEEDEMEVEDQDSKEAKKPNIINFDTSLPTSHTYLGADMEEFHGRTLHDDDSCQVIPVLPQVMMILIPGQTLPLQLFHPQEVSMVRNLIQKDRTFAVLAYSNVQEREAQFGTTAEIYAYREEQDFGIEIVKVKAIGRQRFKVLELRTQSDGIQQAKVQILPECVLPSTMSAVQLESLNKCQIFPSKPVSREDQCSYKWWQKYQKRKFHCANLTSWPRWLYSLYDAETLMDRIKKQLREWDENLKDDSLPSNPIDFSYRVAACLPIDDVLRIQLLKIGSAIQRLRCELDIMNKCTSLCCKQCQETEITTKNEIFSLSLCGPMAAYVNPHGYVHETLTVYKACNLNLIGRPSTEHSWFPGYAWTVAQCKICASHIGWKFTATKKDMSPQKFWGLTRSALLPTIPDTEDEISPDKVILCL
T1 sequence (Q16531 whole entry partner, the tested form may be a part): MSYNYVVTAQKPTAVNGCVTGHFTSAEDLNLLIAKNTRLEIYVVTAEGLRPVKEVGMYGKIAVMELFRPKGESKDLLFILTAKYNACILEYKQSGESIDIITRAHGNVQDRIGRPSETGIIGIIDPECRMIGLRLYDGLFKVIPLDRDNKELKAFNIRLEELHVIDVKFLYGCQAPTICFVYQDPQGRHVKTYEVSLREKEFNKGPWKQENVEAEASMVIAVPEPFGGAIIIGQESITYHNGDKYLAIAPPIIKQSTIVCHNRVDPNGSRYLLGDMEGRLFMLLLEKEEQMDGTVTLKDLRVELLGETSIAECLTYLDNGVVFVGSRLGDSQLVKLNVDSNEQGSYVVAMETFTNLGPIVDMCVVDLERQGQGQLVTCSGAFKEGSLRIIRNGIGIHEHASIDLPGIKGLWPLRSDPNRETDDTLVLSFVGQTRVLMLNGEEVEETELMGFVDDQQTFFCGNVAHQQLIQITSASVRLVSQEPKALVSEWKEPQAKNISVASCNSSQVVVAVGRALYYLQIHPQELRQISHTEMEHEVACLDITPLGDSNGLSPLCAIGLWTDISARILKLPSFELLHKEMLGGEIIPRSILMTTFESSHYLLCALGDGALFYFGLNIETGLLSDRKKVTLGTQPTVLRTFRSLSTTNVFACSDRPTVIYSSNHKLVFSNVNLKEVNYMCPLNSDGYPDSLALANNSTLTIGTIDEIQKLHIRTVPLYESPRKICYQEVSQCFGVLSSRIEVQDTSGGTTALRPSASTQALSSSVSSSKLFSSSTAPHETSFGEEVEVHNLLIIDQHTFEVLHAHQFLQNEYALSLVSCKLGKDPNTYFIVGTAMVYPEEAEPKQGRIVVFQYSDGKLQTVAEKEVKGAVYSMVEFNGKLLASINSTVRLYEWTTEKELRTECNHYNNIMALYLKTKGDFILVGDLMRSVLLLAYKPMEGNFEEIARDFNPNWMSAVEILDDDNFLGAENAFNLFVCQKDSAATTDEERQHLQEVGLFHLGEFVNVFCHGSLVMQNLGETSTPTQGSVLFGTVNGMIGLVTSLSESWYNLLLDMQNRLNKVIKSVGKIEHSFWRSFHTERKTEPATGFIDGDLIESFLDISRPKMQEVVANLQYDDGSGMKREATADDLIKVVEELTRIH
T1 sequence (Q13422 whole entry, the tested form may be a part): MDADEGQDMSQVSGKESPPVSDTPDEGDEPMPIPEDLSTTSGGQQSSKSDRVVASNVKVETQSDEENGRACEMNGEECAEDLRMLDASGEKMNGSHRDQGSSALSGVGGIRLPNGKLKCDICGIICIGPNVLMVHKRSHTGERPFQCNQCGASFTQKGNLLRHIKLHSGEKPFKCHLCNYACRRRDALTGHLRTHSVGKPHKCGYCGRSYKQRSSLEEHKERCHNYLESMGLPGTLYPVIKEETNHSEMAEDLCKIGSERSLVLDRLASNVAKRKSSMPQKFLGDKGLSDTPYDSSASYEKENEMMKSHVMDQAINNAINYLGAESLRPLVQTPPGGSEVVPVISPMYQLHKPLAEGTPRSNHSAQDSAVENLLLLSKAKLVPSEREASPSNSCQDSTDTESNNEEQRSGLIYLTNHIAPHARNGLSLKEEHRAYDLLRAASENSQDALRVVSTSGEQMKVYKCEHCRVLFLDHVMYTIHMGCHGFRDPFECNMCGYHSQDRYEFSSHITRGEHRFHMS

| DC50 [1] [µM] | IRAK4 change from vehicle ([2]; time 0 h) | IRAK4 change from vehicle ([2]; time 2 h) [%] | IRAK4 change from vehicle ([2]; time 24 h) [%] | IRAK4 change from vehicle ([2]; time 48 h) [%] | IRAK4 change from vehicle ([2]; time 96 h) [%] | SMILES |
| --- | --- | --- | --- | --- | --- | --- |
| > 10 | +12% | −51 | −97 | −95 | −95 | CC(C)Oc1cc2nc([C@H]3CC[C@H](CN4CCC(c5ccc6c(c5)n(C)c(=O)n6C5CCC(=O)NC5=O)CC4)CC3)cn2cc1C(=O)Nc1cnn2cccnc12 (some centres unmarked) [Compound 48, 2-[4-[[4-[1-(2,6-dioxo-3-piperidyl)-3-methyl-2-oxo-benzimidazol-5-yl]-1-piperidyl]methyl]cyclohexyl]-7-isopropoxy-N-pyrazolo[1,5-a]pyrimidin-3-yl-imidazo[1,2-a]pyridine-6-carboxamide] |
|  | −11% | −57 | −97 | −96 | −95 | CC(C)Oc1cc2nc([C@H]3CC[C@H](CN4CCC(c5ccc6c(c5)n(C)c(=O)n6C5CCC(=O)NC5=O)CC4)CC3)cn2cc1C(=O)Nc1cccn([C@H]2C[C@H]2F)c1=O (stereo partly drawn) [Compound 169, 2-((1R,4S)-4-((4-(1-(2,6-dioxopiperidin-3-yl)-3-methyl-2-oxo-2,3-dihydro-1H-benzo[d]imidazol-5-yl)piperidin-1-yl)methyl)cyclohexyl)-N-(1-((1S,2R)-2-fluorocyclopropyl)-2-oxo-1,2-dihydropyridin-3-yl)-7-isopropoxyimidazo[1,2-a]pyridine-6-carboxamide] |
